{
  "source": "paper PMC11842024",
  "about": "“Reversible male contraception by targeted inhibition of serine/threonine kinase 33” (Science (New York, N.Y.), 2024)",
  "key": {"[1]": {"tested_on": "male mice", "assay": "Computer assisted sperm analysis (CASA) of cauda epididymis sperm", "type": "in vivo", "source_text": "To further understand the cause of the contraceptive effect of CDD-2807, we analyzed sperm from the cauda epididymis of each mouse using computer assisted sperm analysis (CASA). Although sperm counts were lower in the controls in protocol 1 mice versus CDD-2807–treated mice (fig. S23C), sperm motility (fig. S23D), progressive sperm (fig. S23E), and hyperactivated sperm (fig. S23F) were reduced in the CDD-2807–treated mice. In protocol 2, sperm counts (Fig. 4D), sperm motility (Fig. 4E), progressive sperm (Fig. 4F), and hyperactivated sperm (Fig. 4G) were reduced in the CDD-2807-treated mice versus control mice. […] Thus, low dose (CDD-2807 at 15 mg kg^−1 twice per day for 45 days) or reduced duration (CDD-2807 at 50 mg kg^−1 day^−1 for 7 days) appears to cause a functional defect in motility, whereas high dose (CDD-2807 at 50 mg kg^−1 day^−1 for 63 days) causes both functional and morphologic defects, consistent with the Stk33 knockout and likely a direct role of STK33 in phosphorylation of fibrous sheath proteins A-kinase anchoring protein 3 (AKAP3) and AKAP4 and/or other STK33 targets ([48])."}, "[2]": {"tested_on": "male mice", "assay": "Testis size of treated mice", "type": "in vivo"}, "[3]": {"target": "STK33 (Homo sapiens, UniProt Q9BYT3)", "sequence (Q9BYT3 whole entry)": "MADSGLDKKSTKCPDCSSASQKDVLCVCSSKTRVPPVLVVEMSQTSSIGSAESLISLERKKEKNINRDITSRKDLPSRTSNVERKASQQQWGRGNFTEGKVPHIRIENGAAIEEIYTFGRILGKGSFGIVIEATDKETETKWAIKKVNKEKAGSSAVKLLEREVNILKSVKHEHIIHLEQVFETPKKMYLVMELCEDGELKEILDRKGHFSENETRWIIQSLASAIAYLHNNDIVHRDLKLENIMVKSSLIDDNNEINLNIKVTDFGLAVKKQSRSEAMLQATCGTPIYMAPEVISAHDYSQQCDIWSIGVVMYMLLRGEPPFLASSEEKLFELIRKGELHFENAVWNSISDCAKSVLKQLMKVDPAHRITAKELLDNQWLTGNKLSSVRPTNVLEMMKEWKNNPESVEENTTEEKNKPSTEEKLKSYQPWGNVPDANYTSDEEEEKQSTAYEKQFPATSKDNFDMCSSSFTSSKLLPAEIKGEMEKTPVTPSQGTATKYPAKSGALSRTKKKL", "assay": "LanthaScreen binding assay (ThermoFisher SelectScreen)", "parameters": "purchased SelectScreen Services (ThermoFisher)", "source_text": "(§1) In vitro biochemical assays. Several small molecule assays were outsourced to SelectScreen Services (ThermoFisher) for STK33 and for off-target kinases (data sets are available on demand).\n(§2) These assays are LanthaScreen (binding assay) and Z’-LYTE (activity assay). Dose-responses were done with at least 5 different concentrations in duplicates, and parameters were optimized by calculations described below and provided with standard errors.\n(§3) Calculation of Kd values for kinase inhibitors that bind to the ATP pocket of a kinase from LanthaScreen binding data. DynaFit (71) was used to fit complex equilibria where a tracer is displaced by a dilution series of a kinase inhibitor. This method relies on the concentration of inhibitor, as well as the concentration of kinase and tracer, and Kd of the tracer. The latter three parameters are tabulated by ThermoFisher for each kinase in the LanthaScreen assay panel. […]\nSince Kd and Ki values are defined the same way, in other words, Kd = [E] [I] / [EI] = Ki, Kd and Ki values can be compared. […]"}, "[4]": {"target": "CLK4 (Homo sapiens, UniProt Q9HAZ1)", "sequence (Q9HAZ1 whole entry)": "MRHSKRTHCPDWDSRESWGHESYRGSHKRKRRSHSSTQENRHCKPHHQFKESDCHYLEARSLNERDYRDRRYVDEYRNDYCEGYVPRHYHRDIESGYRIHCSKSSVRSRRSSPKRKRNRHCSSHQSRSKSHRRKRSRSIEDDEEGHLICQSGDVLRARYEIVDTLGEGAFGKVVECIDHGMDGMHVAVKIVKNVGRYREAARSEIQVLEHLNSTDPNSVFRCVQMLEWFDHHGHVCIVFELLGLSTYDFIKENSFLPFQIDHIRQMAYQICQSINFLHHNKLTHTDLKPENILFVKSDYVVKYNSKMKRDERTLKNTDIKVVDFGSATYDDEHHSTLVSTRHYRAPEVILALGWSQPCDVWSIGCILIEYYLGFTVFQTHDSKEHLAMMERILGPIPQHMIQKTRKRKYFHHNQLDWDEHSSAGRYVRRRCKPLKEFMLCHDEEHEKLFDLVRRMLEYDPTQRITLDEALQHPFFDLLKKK", "assay": "LanthaScreen binding assay (ThermoFisher SelectScreen)", "parameters": "purchased SelectScreen Services (ThermoFisher)", "source_text": "as §1, §2, §3"}, "[5]": {"target": "CLK1 (Homo sapiens, UniProt P49759)", "sequence (P49759 whole entry)": "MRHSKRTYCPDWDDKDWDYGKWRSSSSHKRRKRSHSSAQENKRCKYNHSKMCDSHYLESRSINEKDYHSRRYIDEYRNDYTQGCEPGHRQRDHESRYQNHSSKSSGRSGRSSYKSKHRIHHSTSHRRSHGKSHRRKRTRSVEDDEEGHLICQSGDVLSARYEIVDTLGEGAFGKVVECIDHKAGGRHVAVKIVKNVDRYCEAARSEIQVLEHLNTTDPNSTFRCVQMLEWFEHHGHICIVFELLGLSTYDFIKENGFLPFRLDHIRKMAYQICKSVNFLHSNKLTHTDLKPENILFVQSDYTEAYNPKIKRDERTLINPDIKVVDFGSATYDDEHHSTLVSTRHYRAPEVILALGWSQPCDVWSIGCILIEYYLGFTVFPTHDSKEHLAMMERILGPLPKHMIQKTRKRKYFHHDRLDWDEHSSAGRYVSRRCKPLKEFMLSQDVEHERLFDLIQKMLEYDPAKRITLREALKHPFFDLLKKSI", "assay": "Z'-LYTE activity assay (ThermoFisher SelectScreen)", "type": "biochemical", "parameters": "purchased SelectScreen Services (ThermoFisher)", "conditions": "[ATP] = Kmapp", "source_text": "as §1\n(§4) These assays are LanthaScreen (binding assay) and Z’-LYTE (activity assay). Dose-responses were done with at least 5 different concentrations in duplicates, and parameters were optimized by calculations described below and provided with standard errors. […]\n(§5) Calculation of Ki values for kinase inhibitors from Z’-LYTE inhibition data. The Morrison equation with [ATP] = Kmapp for competitive inhibition (GraphPad Prism 7, San Diego, CA) was used to get Ki values. Since Kd and Ki values are defined the same way, in other words, Kd = [E] [I] / [EI] = Ki, Kd and Ki values can be compared. […]"}, "[6]": {"target": "CLK2 (Homo sapiens, UniProt P49760)", "sequence (P49760 whole entry)": "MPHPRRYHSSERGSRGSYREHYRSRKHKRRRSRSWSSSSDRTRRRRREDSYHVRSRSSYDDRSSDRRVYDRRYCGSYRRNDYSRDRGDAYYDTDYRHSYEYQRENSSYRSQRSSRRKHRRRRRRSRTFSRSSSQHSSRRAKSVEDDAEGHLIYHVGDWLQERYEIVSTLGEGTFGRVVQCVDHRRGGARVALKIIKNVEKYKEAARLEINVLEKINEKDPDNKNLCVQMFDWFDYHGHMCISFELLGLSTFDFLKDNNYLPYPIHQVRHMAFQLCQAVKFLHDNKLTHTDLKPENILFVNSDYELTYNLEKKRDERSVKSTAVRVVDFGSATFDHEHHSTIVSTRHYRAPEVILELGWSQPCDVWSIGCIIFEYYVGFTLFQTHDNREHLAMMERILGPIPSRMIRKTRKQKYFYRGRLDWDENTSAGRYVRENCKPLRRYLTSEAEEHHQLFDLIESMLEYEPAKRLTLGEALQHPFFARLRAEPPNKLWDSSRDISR", "assay": "Z'-LYTE activity assay (ThermoFisher SelectScreen)", "type": "biochemical", "parameters": "purchased SelectScreen Services (ThermoFisher)", "conditions": "[ATP] = Kmapp", "source_text": "as §1, §4, §5"}, "[7]": {"target": "RET (Homo sapiens, UniProt P07949)", "sequence (P07949 29-1114)": "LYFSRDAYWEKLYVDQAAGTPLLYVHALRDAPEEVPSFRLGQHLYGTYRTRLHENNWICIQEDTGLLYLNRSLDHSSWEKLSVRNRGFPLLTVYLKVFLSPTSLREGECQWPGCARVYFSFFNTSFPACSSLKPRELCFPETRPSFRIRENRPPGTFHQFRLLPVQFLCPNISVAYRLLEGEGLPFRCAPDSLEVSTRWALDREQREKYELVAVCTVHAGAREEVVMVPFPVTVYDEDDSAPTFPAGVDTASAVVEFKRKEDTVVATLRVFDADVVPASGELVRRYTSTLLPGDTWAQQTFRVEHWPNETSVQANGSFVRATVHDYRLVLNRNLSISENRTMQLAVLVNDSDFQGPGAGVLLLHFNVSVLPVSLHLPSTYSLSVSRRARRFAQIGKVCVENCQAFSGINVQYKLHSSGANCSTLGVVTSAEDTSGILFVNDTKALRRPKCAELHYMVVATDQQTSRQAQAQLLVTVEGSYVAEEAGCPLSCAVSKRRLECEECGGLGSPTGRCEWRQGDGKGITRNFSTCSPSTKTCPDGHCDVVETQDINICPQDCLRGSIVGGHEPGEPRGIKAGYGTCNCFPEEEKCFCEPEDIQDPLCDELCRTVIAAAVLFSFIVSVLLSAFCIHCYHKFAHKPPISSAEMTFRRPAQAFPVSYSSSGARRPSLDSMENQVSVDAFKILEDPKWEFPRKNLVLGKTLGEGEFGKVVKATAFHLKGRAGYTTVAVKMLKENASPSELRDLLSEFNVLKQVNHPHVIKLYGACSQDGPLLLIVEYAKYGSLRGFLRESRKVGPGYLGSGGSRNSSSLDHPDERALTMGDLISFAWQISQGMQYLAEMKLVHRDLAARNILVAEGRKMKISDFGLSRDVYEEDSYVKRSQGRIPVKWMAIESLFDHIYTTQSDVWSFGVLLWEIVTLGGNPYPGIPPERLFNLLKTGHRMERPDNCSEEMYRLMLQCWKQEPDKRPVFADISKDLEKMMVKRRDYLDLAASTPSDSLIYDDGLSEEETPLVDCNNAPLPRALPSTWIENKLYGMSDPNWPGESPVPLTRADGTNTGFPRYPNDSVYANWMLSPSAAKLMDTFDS", "assay": "Z'-LYTE activity assay (ThermoFisher SelectScreen)", "type": "biochemical", "parameters": "purchased SelectScreen Services (ThermoFisher)", "conditions": "[ATP] = Kmapp", "source_text": "as §1, §4, §5"}, "[8]": {"conditions": "50 mg/kg/day for 7 days (Protocol 3)"}, "[9]": {"conditions": "protocol 2 at 63 days, vs control"}},
  "data": [
    {"smiles": "O=C(c1ccc2[nH]nc(C#Cc3ccccc3-c3ccccc3)c2c1)N1CC2(CCCNC2)C1", "note": "[CDD-2807]", "values": [
      {"measurement": "progressive sperm", "setting": "[1]; [8]", "value": "statistically significant reductions"},
      {"measurement": "sperm counts", "setting": "[1]; [8]", "value": "did not alter"},
      {"measurement": "sperm hyperactivation", "setting": "[1]; [8]", "value": "statistically significant reductions"},
      {"measurement": "sperm motility", "setting": "[1]; [8]", "value": "statistically significant reductions"},
      {"measurement": "hyperactivated sperm", "setting": "[1]; protocol 1, day 45, vs control", "value": "reduced"},
      {"measurement": "progressive sperm", "setting": "[1]; protocol 1, day 45, vs control", "value": "reduced"},
      {"measurement": "sperm motility", "setting": "[1]; protocol 1, day 45, vs control", "value": "reduced"},
      {"measurement": "hyperactivated sperm", "setting": "[1]; [9]", "value": "significant decrease"},
      {"measurement": "progressive sperm", "setting": "[1]; [9]", "value": "significant decrease"},
      {"measurement": "sperm counts", "setting": "[1]; [9]", "value": "significant decrease"},
      {"measurement": "sperm motility", "setting": "[1]; [9]", "value": "significant decrease"},
      {"measurement": "testis size", "setting": "[2]; [8]", "value": "did not alter"},
      {"measurement": "testis size", "setting": "[2]; protocol 1 at day 45", "value": "normal"},
      {"measurement": "testis size", "setting": "[2]; protocol 2 at 63 days", "value": "87.13 ± 5.87", "unit": "mg"},
      {"measurement": "Kd", "setting": "[3]", "value": 20, "unit": "pM"},
      {"measurement": "Kd", "setting": "[4]", "value": 900, "unit": "pM"},
      {"measurement": "Ki", "setting": "[5]", "value": 3100, "unit": "pM"},
      {"measurement": "Ki", "setting": "[6]", "value": 1300, "unit": "pM"},
      {"measurement": "Ki", "setting": "[7]", "value": 300, "unit": "pM"}
    ]}
  ]
}
